A short description of series [1]: Metabolic stability test: liver microsomal stability assay. Conditions: mouse liver microsomes 0.5 mg protein/mL, compound 1 µM; for microsomal CLint at 1 µM: male, pH 7.4, presence of NADPH, read-out: Mouse Hepatic Microsome CLh,int NADPH(+); for Mouse Hepatic Microsome CLh,int NADPH(-): absence of NADPH. In kind it is in vitro ADME, mouse. The protocol: Under the presence and absence of NADPH, a microsome solution prepared to a concentration of 0.5 mg protein/mL using 100 mM phosphate buffer (pH 7.4) with mouse liver microsomes (male, Corning Incorporated, USA) and the compound at a concentration of 1 µM were subjected to a metabolic reaction for 22 minutes, 44 minutes, or 66 minutes. Protein removal processing was performed over time using acetonitrile, and the remaining amount of unchanged compound was analyzed using LCMS to calculate the intrinsic hepatic clearance (CLh, int) (Table 6).

In the next series the test system is Caco-2 cells. The experiment in a line: Membrane permeability test using Caco-2 cells with preincubation. In kind it is in vitro ADME. Conditions: Caco-2 cells, preincubation 20 to 24 hours; apical FaSSIF/HBSS 1% DMSO pH 6.0, basal HBSS 4% BSA pH 7.4; basal sample at 180 minutes. The method, then: (§1) The permeability coefficient (Caco-2 Papp (cm/sec)) is calculated using a numerical expression 1. [Expression 1] Papp = (1)/(C1 (0) × S) × (dQ)/(dt) [formula] dQ/dt represents the permeation rate of drug (the amount of drug appearing on the Basal side per unit time), S represents the total surface area of cells, and C1(0) represents the concentration of drug added on the Apical side.
(§2) Using a mixed medium of FaSSIF containing 1% DMSO and DMEM as the apical medium, and DMEM as the basal medium, Caco-2 cells and peptide compounds are preincubated for 20 to 24 hours under conditions of 5% CO2, 37°C, and 80 rpm. Afterward, the culture medium on the Apical side and the Basal side are aspirated and washed, the peptide compound was added to a FaSSIF/HBSS buffer solution containing 1% DMSO (1% DMSO) (pH 6.0) at the Apical side, a HBSS buffer solution containing 4% BSA (pH 7.4) was added to the Basal side, and measurement of membrane permeability is started. Each well is shaken under 5% CO2 at 37°C and 80 rpm, and at 180 minutes after the start of shaking, a sample on the Basal side is collected. The amount of peptide compounds in the sample was measured using LCMS, and the membrane permeability coefficient was calculated from the permeation amount (Table 7). When calculating the membrane permeability coefficient (Papp) from the permeation amount, the following expression can be used. Papp = (dQ)/(dt) × (1)/(C1 (0) × S) [formula]
(§3) dQ/dt represents the permeation rate of drug (the amount of drug appearing on the Basal side per unit time), C1(0) represents the concentration of drug added on the Apical side, and S represents the total surface area of cells.

Experiment in series [2]: as above
Conditions: Caco-2; preincubation 20 to 24 hours; Apical FaSSIF/HBSS pH 6.0, Basal HBSS 4% BSA pH 7.4; 180 minutes; read-out: Caco2 Papp. It counts as in vitro ADME. The protocol: as §1, §2, §3

The source of these data is EP4768499A1, “MACROCYCLIC PEPTIDE COMPOUND HAVING CELL MEMBRANE PERMEABILITY AND METABOLIC STABILITY, AND LIBRARY CONTAINING SAME” (Chugai Seiyaku Kabushiki Kaisha, priority 2023, dated 2025).

Positions of bridges follow the written chain, without caps; N, C: chain ends. Non-standard residues stand in square brackets, D forms with d. Residues, ends and D or L forms follow the SMILES beside them. *: point of attachment. NMeF = CN[C@@H](Cc1ccccc1)C(=O)O; NMeI = CC[C@H](C)[C@H](NC)C(=O)O; NMeT = CN[C@H](C(=O)O)[C@@H](C)O; hPhe = N[C@@H](CCc1ccccc1)C(=O)O; NMeL = CN[C@@H](CC(C)C)C(=O)O; NMeV = CN[C@H](C(=O)O)C(C)C; d(β3hA) = C[C@@H](N)CC(=O)O; NMeAbu = CC[C@H](NC)C(=O)O; NMeA = CN[C@@H](C)C(=O)O; Piperidide = C1CCN(*)CC1; dNMeA = CN[C@H](C)C(=O)O; Abu = CC[C@H](N)C(=O)O; βAla = NCCC(=O)O; Sar = CNCC(=O)O; tBu = CC(C)(C)*

As to `CC[C@@H]1NC(=O)[C@H](C)N(C)C(=O)[C@H](CC(C)C)N(C)C(=O)[C@H]([C@@H](C)O)N(C)C(=O)[C@H](CC(C)C)N(C)C(=O)CCNC(=O)[C@H](Cc2ccccc2)N(C)C(=O)CN(C)C(=O)C[C@@H](C(=O)N2CCCCC2)NC(=O)[C@H](C(C)C)N(C)C(=O)[C@H](C)N(C)C(=O)[C@@H]2CCCN2C(=O)[C@H](C(C)C)NC(=O)[C@H](Cc2ccccc2)N(C)C1=O` [pd005] ([Sar][NMeF][βAla][NMeL][NMeT][NMeL][NMeA][Abu][NMeF]VP[NMeA][NMeV]D-Piperidide; lactam N-14), in series [1], the microsomal CLint at 1 µM stood at 1.4 µL/min/mg and the “Mouse Hepatic Microsome CLh,int NADPH(-)” value is 1.1 µL/min/mg Protein. The “Caco2 Papp (10^-6 cm/sec)” value in the series on Caco-2 cells is recorded as 0.05 10^-6 cm/sec. In series [2], the Papp A→B stood at 0.05 ×10⁻⁶ cm/s.
For the compound `CC[C@@H]1NC(=O)[C@H](CC(C)C)N(C)C(=O)[C@H](CC(C)C)NC(=O)CN(C)C(=O)[C@H](C(C)C)NC(=O)[C@H](CC(C)C)N(C)C(=O)[C@H](C(C)C)NC(=O)[C@H](Cc2ccccc2)N(C)C(=O)[C@H](C)N(C)C(=O)[C@@H](C)NC(=O)C[C@@H](C)NC(=O)[C@H](C(C)C)N(C)C(=O)[C@H](CC)N(C)C(=O)[C@H](CCc2ccccc2)NC1=O` [pd006] (cyclo([Abu][hPhe][NMeAbu][NMeV][d(β3hA)][dA][NMeA][NMeF]V[NMeL]V[Sar]L[NMeL])), in series [1], the microsomal CLint at 1 µM is 51.4 µL/min/mg and the “Mouse Hepatic Microsome CLh,int NADPH(-)” value worked out at 30.0 µL/min/mg Protein. The “Caco2 Papp (10^-6 cm/sec)” value in the series with Caco-2 cells is recorded as <0.11 10^-6 cm/sec. Moreover, the Papp A→B in series [2] was less than 0.11 ×10⁻⁶ cm/s.
As to `CC[C@H](C)[C@@H]1NC(=O)[C@H](CC(C)C)N(C)C(=O)[C@H](CC(C)C)NC(=O)[C@H](C)N(C)C(=O)C[C@@H](C)NC(=O)[C@H](CC(C)C)NC(=O)[C@H](CC(C)C)N(C)C(=O)CN(C)C(=O)[C@H](C(C)C)NC(=O)[C@H]([C@@H](C)CC)N(C)C(=O)[C@H](COC(C)(C)C)NC(=O)[C@H](CC(C)C)N(C)C(=O)CCNC(=O)[C@H](Cc2ccccc2)N(C)C1=O` [pd007] (cyclo(I[NMeF][βAla][NMeL]S(tBu)[NMeI]V[Sar][NMeL]L[d(β3hA)][NMeA]L[NMeL])), in series [1], the microsomal CLint at 1 µM turned out to be 40.8 µL/min/mg and the “Mouse Hepatic Microsome CLh,int NADPH(-)” value is 34.9 µL/min/mg Protein. For the same compound, in the series with Caco-2 cells, the “Caco2 Papp (10^-6 cm/sec)” value is 0.11 10^-6 cm/sec. Further, in series [2], the Papp A→B was 0.11 ×10⁻⁶ cm/s.
As to `CC[C@@H]1NC(=O)[C@H](Cc2ccccc2)N(C)C(=O)[C@H](COC(C)(C)C)NC(=O)[C@H](CC(C)C)N(C)C(=O)[C@H](C(C)C)NC(=O)CN(C)C(=O)[C@H]([C@@H](C)O)NC(=O)[C@H](CC(C)C)N(C)C(=O)[C@H](C(C)C)NC(=O)[C@H](Cc2ccccc2)N(C)C(=O)[C@H](C)N(C)C(=O)[C@@H](C)NC(=O)C[C@@H](C)NC(=O)[C@H](C(C)C)N(C)C1=O` [pd008] (cyclo([Abu][NMeV][d(β3hA)][dA][NMeA][NMeF]V[NMeL]T[Sar]V[NMeL]S(tBu)[NMeF])), in series [1], the microsomal CLint at 1 µM worked out at 13.4 µL/min/mg and the “Mouse Hepatic Microsome CLh,int NADPH(-)” value is recorded as 11.8 µL/min/mg Protein. In addition, the “Caco2 Papp (10^-6 cm/sec)” value in the series on Caco-2 cells is given as 0.04 10^-6 cm/sec. Besides, in series [2], the Papp A→B stood at 0.04 ×10⁻⁶ cm/s.
As to `CC[C@H](C)[C@@H]1NC(=O)[C@H](CC(C)C)N(C)C(=O)[C@H](CC(C)C)NC(=O)[C@H](C)N(C)C(=O)C[C@@H](C)NC(=O)CN(C)C(=O)[C@H](CC(C)C)N(C)C(=O)[C@H]([C@@H](C)O)NC(=O)[C@H](C(C)C)NC(=O)[C@H]([C@@H](C)CC)N(C)C(=O)[C@H](COC(C)(C)C)NC(=O)[C@H](CC(C)C)N(C)C(=O)[C@H](C)NC(=O)[C@H](Cc2ccccc2)N(C)C1=O` [pd009] (cyclo(A[NMeL]S(tBu)[NMeI]VT[NMeL][Sar][d(β3hA)][NMeA]L[NMeL]I[NMeF])), in series [1], the microsomal CLint at 1 µM was 38.9 µL/min/mg and the “Mouse Hepatic Microsome CLh,int NADPH(-)” value is listed as 42.4 µL/min/mg Protein. Also, in the series with Caco-2 cells, the “Caco2 Papp (10^-6 cm/sec)” value was 0.13 10^-6 cm/sec. Moreover, the Papp A→B in series [2] stood at 0.13 ×10⁻⁶ cm/s.
For the compound `CC[C@@H]1NC(=O)[C@H](CC(C)C)N(C)C(=O)[C@H]([C@@H](C)CC)NC(=O)CN(C)C(=O)C[C@@H](C)NC(=O)[C@H](C(C)C)N(C)C(=O)[C@H](COC(C)(C)C)NC(=O)[C@H](CC(C)C)N(C)C(=O)[C@H](C)NC(=O)[C@H](Cc2ccccc2)N(C)C(=O)[C@H](CC(C)C)NC(=O)CN(C)C(=O)[C@H]([C@@H](C)O)NC(=O)[C@H](CC(C)C)N(C)C1=O` [pd010] (cyclo(A[NMeL]S(tBu)[NMeV][d(β3hA)][Sar]I[NMeL][Abu][NMeL]T[Sar]L[NMeF])), in series [1], the microsomal CLint at 1 µM is 59.7 µL/min/mg and the “Mouse Hepatic Microsome CLh,int NADPH(-)” value came out at 27.8 µL/min/mg Protein. For the same compound, the “Caco2 Papp (10^-6 cm/sec)” value in the series with Caco-2 cells is 0.72 10^-6 cm/sec. Besides, the Papp A→B in series [2] was found to be 0.72 ×10⁻⁶ cm/s.
On the same counts, the results for `CC[C@@H]1NC(=O)[C@H](CC(C)C)N(C)C(=O)[C@H]([C@@H](C)CC)NC(=O)CN(C)C(=O)C[C@@H](C)NC(=O)[C@H](C(C)C)N(C)C(=O)[C@H](COC(C)(C)C)NC(=O)[C@H](CC(C)C)N(C)C(=O)[C@H](Cc2ccccc2)N(C)C(=O)[C@H](C)NC(=O)[C@H](C(C)C)NC(=O)CN(C)C(=O)[C@H]([C@@H](C)O)NC(=O)[C@H](CC(C)C)N(C)C1=O` [pd011] (cyclo(A[NMeF][NMeL]S(tBu)[NMeV][d(β3hA)][Sar]I[NMeL][Abu][NMeL]T[Sar]V)) are 27.3 µL/min/mg, 22.9 µL/min/mg Protein, 0.11 10^-6 cm/sec and 0.11 ×10⁻⁶ cm/s.
`CC[C@@H]1NC(=O)[C@H](Cc2ccccc2)N(C)C(=O)[C@H](COC(C)(C)C)NC(=O)[C@H](CC(C)C)N(C)C(=O)[C@H](C)N(C)C(=O)[C@@H]2CCCN2C(=O)[C@H]([C@@H](C)O)NC(=O)[C@H](CC(C)C)N(C)C(=O)[C@H]([C@@H](C)CC)NC(=O)[C@H](Cc2ccccc2)N(C)C(=O)[C@H](C(C)C)NC(=O)[C@@H](C)N(C)C(=O)C[C@@H](C)NC(=O)[C@H](C(C)C)N(C)C1=O` [pd012] (cyclo([Abu][NMeV][d(β3hA)][dNMeA]V[NMeF]I[NMeL]TP[NMeA][NMeL]S(tBu)[NMeF])): in series [1], the microsomal CLint at 1 µM is 41.3 µL/min/mg and the “Mouse Hepatic Microsome CLh,int NADPH(-)” value was 20.1 µL/min/mg Protein. Moreover, the “Caco2 Papp (10^-6 cm/sec)” value in the series with Caco-2 cells was 4.30 10^-6 cm/sec. In addition, the Papp A→B in series [2] was 4.3 ×10⁻⁶ cm/s.
Taken in the same sequence, the figures for `CC[C@@H]1NC(=O)[C@H](Cc2ccccc2)N(C)C(=O)[C@H](C(C)C)NC(=O)[C@H](COC(C)(C)C)NC(=O)[C@H](C)N(C)C(=O)CN(C)C(=O)[C@H](CC(C)C)NC(=O)[C@@H]2CCCN2C(=O)[C@H](C(C)C)N(C)C(=O)[C@H](C)NC(=O)[C@H](CC)N(C)C(=O)[C@@H](C(C)C)NC(=O)C[C@@H](C(=O)N2CCCCC2)NC(=O)[C@H](C(C)C)N(C)C1=O` [pd013] ([dV][NMeAbu]A[NMeV]PL[Sar][NMeA]S(tBu)V[NMeF][Abu][NMeV]D-Piperidide; lactam N-14) were 12.1 µL/min/mg, 6.1 µL/min/mg Protein, 0.04 10^-6 cm/sec and 0.04 ×10⁻⁶ cm/s.
